Counter-ions that a name gives are not always drawn.
What was measured:
[1] = test system: Ctrl and APP/PS1 (AD) mice; experiment: Contextual fear conditioning (CFC), 3-shock; type: in vivo; conditions: for memory retrieval: 2-month-old male AD mice; for learning (freezing during training): male AD mice
Method: A 3-shock CFC paradigm was administered as previously described (Denny et al., 2014; Drew et al., 2010). Fear conditioning was conducted in chambers obtained from Coulborn Instruments (Allentown, PA) with internal dimensions of approximately 20 cm wide×16 cm deep×20.5 cm high. The chambers had metal walls on each side, clear plastic front and back walls and ceilings, and stainless-steel bars on the floor. A house light (CM1820 bulb, 28 V, 100 mA) mounted directly above the chamber provided illumination. Each chamber was located inside a larger, insulated, plastic cabinet that provided protection from outside light and noise. Each cabinet contained a ventilation fan that was operated during the sessions. A paper towel dabbed with lemon solution was placed underneath the chamber floor. Mice were held outside the experimental room in their home cages prior to testing and transported to the conditioning apparatus individually in standard mouse cages. Chambers were cleaned with 70% EtOH between each set of mice. Training sessions were conducted using a 3-shock protocol. Mice were placed into the conditioning chamber and received shocks at 180 s, 240 s, and 300 s (2 s duration each, 0.75 mA). Fifteen seconds after the last shock, mice were removed from the chamber. Overall, the training session lasted 317 s. […] All sessions were scored for freezing using FreezeFrame4 (Actimetrics, Wilmette, IL).

[2] = test system: Ctrl and APP/PS1 (AD) mice; experiment: Marble burying (MB); type: in vivo; conditions: for percentage of marbles buried: 2-month-old female AD mice
Method: The MB assay was conducted in a clean cage (10.5 in×5.5 in) containing soft pliable Beta Chip bedding (Northeastern Products Corp, Warrensburg, NY). The cage contained 16 marbles set up in 4 rows of 4 across. Mice were given 20 minutes to explore and bury. At the end of the assay, the percentage of marbles buried was calculated.

[3] = test system: 5xFAD mouse model of Alzheimer's disease (AD); conditions: Giannoni et al., 2013; cited from earlier work
[4] = mouse, in vivo
[5] = test system: Ctrl and APP/PS1 (AD) mice; conditions: male Ctrl mice; single injection; compared to Ctrl mice
Method: The APP/PS1 (AD) mice were previously bred with the ArcCreER^T2×enhanced yellow fluorescent protein (EYFP) mice (Denny et al., 2014; Perusini et al., 2017). Female and male mice were used in all experiments. The Ctrl mice were APP/PS1 (−)×ArcCreER^T2 (+) or (−)×EYFP (+/−), and the AD mice were APP/PS1 (+)×ArcCreER^T2 (+) or (−)×EYFP (+/−). Mice were housed 4-5 per cage in a 12-h (06:00-18:00) light-dark colony room at 22° C. Mice had ad libitum access to food and water.
All drugs were resuspended in saline and made fresh for each experiment. […] These dosages were chosen based upon previous studies (Brachman et al., 2016; Chen et al., 2020a). […] All drugs were prepared in physiological saline and administered intraperitoneally (i.p.) in volumes of 0.1 cc per 10 mg body weight.
Testing was performed as previously described (Brachman et al., 2016; Chen et al., 2020a). Briefly, the testing apparatus consisted of a plastic box (50×50×20 cm). The floor was covered with approximately 2 cm of wooden bedding and the arena was brightly lit (approximately 1000 lux). […] The latency of the mice to begin eating was recorded. Immediately after the latency was recorded, the food pellet was removed from the arena. The mice were then placed into their home cage and the amount of food consumed in 5 min was measured (home cage consumption), followed by an assessment of post-restriction weight. […]

[6] = target: hERG (human Ether-a-go-go Related Gene) channels (Homo sapiens, UniProt Q12809); conditions: cited from earlier work
Sequence of hERG (human Ether-a-go-go Related Gene) channels (Q12809 whole entry): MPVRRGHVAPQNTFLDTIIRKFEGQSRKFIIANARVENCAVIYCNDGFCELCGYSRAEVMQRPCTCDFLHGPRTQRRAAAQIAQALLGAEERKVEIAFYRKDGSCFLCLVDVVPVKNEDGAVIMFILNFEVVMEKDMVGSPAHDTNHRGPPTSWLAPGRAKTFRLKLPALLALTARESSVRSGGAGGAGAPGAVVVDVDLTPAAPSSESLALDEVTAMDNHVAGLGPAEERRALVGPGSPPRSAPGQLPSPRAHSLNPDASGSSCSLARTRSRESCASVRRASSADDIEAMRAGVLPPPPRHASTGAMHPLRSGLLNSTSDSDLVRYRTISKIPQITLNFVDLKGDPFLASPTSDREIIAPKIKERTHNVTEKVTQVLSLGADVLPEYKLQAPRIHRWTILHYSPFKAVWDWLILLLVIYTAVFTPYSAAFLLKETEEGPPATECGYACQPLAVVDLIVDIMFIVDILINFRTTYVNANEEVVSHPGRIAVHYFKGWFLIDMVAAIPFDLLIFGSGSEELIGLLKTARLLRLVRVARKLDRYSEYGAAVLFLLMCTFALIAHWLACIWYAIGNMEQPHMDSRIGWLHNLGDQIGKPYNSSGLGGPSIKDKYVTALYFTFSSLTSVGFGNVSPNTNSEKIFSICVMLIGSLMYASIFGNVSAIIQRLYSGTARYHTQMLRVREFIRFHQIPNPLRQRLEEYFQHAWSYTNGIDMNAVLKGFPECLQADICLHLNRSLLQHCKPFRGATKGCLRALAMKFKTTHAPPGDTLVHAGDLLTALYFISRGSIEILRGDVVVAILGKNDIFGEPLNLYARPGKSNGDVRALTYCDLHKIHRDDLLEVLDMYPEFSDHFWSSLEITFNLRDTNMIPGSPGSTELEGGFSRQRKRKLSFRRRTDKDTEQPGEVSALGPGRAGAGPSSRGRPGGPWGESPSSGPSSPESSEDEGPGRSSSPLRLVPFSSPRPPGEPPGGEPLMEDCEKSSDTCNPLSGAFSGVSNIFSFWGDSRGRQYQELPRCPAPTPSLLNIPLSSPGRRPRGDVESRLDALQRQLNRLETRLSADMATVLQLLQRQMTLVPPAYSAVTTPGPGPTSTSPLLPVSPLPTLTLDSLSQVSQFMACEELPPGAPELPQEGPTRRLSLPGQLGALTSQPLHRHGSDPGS

SMILES | memory retrieval ([1]; 1×(R,S)-ketamine 30 mg/kg) | learning (freezing during training) ([1]; single injection) | freezing during training ([1]; male Ctrl mice, single injection, compared to other groups) | perseverative behavior (number of marbles buried) ([2]; female Ctrl mice, prophylactic administration, FIG. 3) | behavioral deficits [3] | hippocampal astrogliosis and microgliosis [3] | number of amyloid plaques and level of amyloid beta (Aβ) species [3] | memory retrieval ([1]; 7×prucalopride 3 mg/kg) | weight and weight loss [4] | latency to feed in home cage [5] | percentage of marbles buried ([2]; 7×prucalopride 1.5 mg/kg) | percentage of marbles buried ([2]; 7×prucalopride 3 mg/kg) | affinity for the hERG channels [6]
CNC1(c2ccccc2Cl)CCCCC1=O (racemic) [(R,S)-ketamine, (RS)-2-(2-chlorophenyl)-2-(methylamino)cyclohexanone] | improved | Neither (R,S)-ketamine nor prucalopride, whether administered solely or jointly, affected learning | increased | decreased |  |  |  |  |  |  |  |  | 
CCCCN1CCC(CCC(=O)c2cc(Cl)c(N)cc2OC)CC1.Cl [RS-67,333, 1-(4-amino-5-chloro-2-methoxyphenyl)-3-[1(n-butyl)-4-piperidinyl]-1-propanone HCl] |  |  |  |  | effective in improving | decreasing | decreasing |  |  |  |  |  | 
COCCCN1CCC(NC(=O)c2cc(Cl)c(N)c3c2OCC3)CC1 [prucalopride, 4-amino-5-chloro-2,3-dihydro-N-[1-3-methoxypropyl)-4-piperidinyl]-7-benzofuran carboxamide monohydrochloride] |  | Neither (R,S)-ketamine nor prucalopride, whether administered solely or jointly, affected learning |  |  |  |  |  | improved | neither weight nor weight loss was impacted | more quickly | decreased | decreased | no affinity
